Data from patent US7595300B2, “7-quinolyl ketolide antibacterial agents” (priority 2005, dated 2009).
Values after ≈ are worked out from the molar mass of the structure shown. Where two headings read alike, the source gives them in different places.

What was measured:
[1] = tested on: male beagle dogs; assay: Cardiovascular safety in telemetered dogs, intravenous infusion; type: in vivo, dog
Description: Four male beagle dogs, obtained from Marshall Farms USA, Inc. (North Rose, N.Y.), were surgically instrumented with telemetry transducers (Data Sciences International, type RL11M2-D70-PCT) to assess arterial blood pressure (ABP) and lead II electrocardiogram (ECG) parameters.
The dosing route was an intravenous infusion jugular vein access). The infusion was accomplished using a CADD Prizm® ambulatory infusion pump attached to a jacket worn by the dog. The dose duration for the intravenous infusion was 30 min for all doses administered, except the last dose (30 mg/kg) where the infusion period was extended to 45 min to accommodate the larger dose volume required for this dose. The vehicle dose and diluent for the test article was 0.05-M sodium citrate in sterile water for injection.
There was one treatment group of four non-naïve dogs and the study was comprised of both pharmacokinetic and telemetry phases, as summarized in the dose administration table for compound (III) (Table 16) below. At least one week was given between dosings to allow clearance of the drug.
For the telemetry phase of the study, collection of hemodynamic and lead II ECG data commenced approximately 30 min prior to dosing and ended approximately 6 h post-dose. Systolic blood pressure (SBP), diastolic blood pressure (DBP), HR, and lead II ECG variables (PR interval, QRS duration, RR interval, and QT interval) were acquired continuously from each animal during each dose day recording session. The QT interval was corrected for variations in HR using the Fridericia's QTc interval (QTcF).
Data acquired following treatment with vehicle or compound (III) were extracted at −10, −5, 0, 10, 20, 30, 35, 45, 60, 90, 150, 270, and 390 min relative to the start dose time. For all blood pressure and ECG parameters, data following treatment with compound (III) were compared to the time-matched vehicle dose data. Statistical comparisons were made using a one-way ANOVA for repeated measures, followed by the Dunnett's post-hoc test when statistical significance was detected with the ANOVA. Changes were considered statistically significant when p<0.05.
A complete visual scan of the ECG waveforms from the vehicle, 11 mg/kg dose, and 15 mg/kg dose of compound (III) was conducted. All waveforms were examined for gross changes in waveform morphology and arrhythmogenesis.

[2] = Pharmacokinetics in the mouse, plasma and lung tissue; type: in vivo; conditions: oral gavage 10 mg/kg; for Lung AUC / Lung Cmax: mouse lung tissue
Description: The pharmacokinetics of compounds of formula (VIII) and compounds of formula (II) and (III) were measured in the mouse. Compounds were administered either intravenously (i.v.) at 1 mg/kg, or per oral gavage (p.o.) at 10 mg/kg. Plasma samples were taken and analyzed by LC/MS-MS. For lung tissue pharmacokinetics, lungs were removed and homogenized, followed by analyzis by LC/MS-MS.

[3] = tested on: Streptococcus pneumoniae; assay: MIC, NCCLS broth microdilution, respiratory pathogens; type: cell-based; conditions: S. pneumoniae
Description: (§1) Minimum inhibitory concentrations (“MICs”) were determined by the NCCLS broth microdilution procedure for susceptibility testing for bacteria that grow aerobically (National Committee for Clinical Laboratory Standards, 1997. Methods for dilution antimicrobial susceptibility tests for bacteria that grow aerobically, 4th ed. Approved standard. NCCLS Document M7-A4. National Committee for Clinical Laboratory Standards, Villanova, Pa.). Stock solutions were prepared on the day of the test and appropriate aliquots were added to cation adjusted Mueller-Hinton broth (CAMHB, DIFCO) or Haemophilus test media. Two-fold serial dilutions were prepared and added to wells in microtiter plates. Final test concentrations ranged from 8 to 0.004 ug/ml. Broth cultures of bacteria inoculated from growth on overnight plates for all test bacteria except Streptococcus pneumoniae and Haemophilus influenzae were incubated at 35° C. and then adjusted to the Kirby Bauer standard and diluted in CAMHB to achieve a final inoculum concentration of approximately 5×10^5 CFU/ml. Inocula for S. pneumoniae and H. influenzae were prepared by directly suspending colonies from an overnight plate, adjusting the turbidity and diluting as above. S. pneumoniae media was supplemented with 3% lysed horse blood. All plates were incubated in ambient air at 35° C. for 20-24 h for S. pneumoniae and Haemophilus influenzae and 16-20 h for all other bacteria.

[4] = tested on: S. pyogenes; assay: as above; type: cell-based; conditions: Streptococcus pyogenes
Description: as §1

[5] = tested on: M. catarrhalis; assay: as above; type: cell-based; conditions: Moraxella catarrhalis
Description: as §1

[6] = tested on: Haemophilus influenzae; assay: as above; type: cell-based; conditions: H. influenzae
Description: as §1

[7] = tested on: Streptococcus pneumoniae ATCC 6303; assay: rat lower respiratory tract infection (lung pneumonia) model; type: in vivo; conditions: for Log CFU/g (avg, n = 8): rat lungs, 12 hours after the last dose
Description: The in vivo efficacy of compounds (II) and (III) were evaluated in a rat lower respiratory tract infection model. Groups of 8 rats were infected intratracheally with 0.5 mL containing 10^6 CFUs of Streptococcus pneumoniae ATCC 6303 in 5% hog gastric mucin. Compounds dissolved in ethanol were administered by oral gavage daily over 3 days starting 18 hours post-inoculation. Lungs were aseptically removed from survivors 12 hours after the last dose and examined for visible signs of infection, then homogenized in sterile PBS and plated for determination of CFUs by log plating on Columbia agar-nalidixic acid plates.

[8] = tested on: anesthetized rats; assay: Cardiovascular safety, QT interval in anesthetized rats, i.v. bolus; type: in vivo, rat; conditions: for QT prolongation (% above vehicle): anesthetized rat, incremental i.v. bolus doses 0.47 to 15 mg/kg
Description: (§2) Total doses of drug (0.47, 0.94, 1.88, 3.75, 7.5, and 15 mg/kg) or equivalent volumes of vehicle were administered incrementally as an i.v. bolus to groups of 6 anesthetized rats or guinea pigs at 0, 15, 30, 45, 60, and 75 minutes. Hemodynamic parameters including mean arterial pressure (MAP) and heart rate (HR), and ECG parameters (QT and PR intervals and QRS duration) were recorded. For the rat, injection of vehicle gave a 16% increase in QT interval over baseline. For the guinea pig, injection of vehicle gave a 3% increase in QT interval over baseline.

[9] = tested on: anesthetized guinea pigs; assay: Cardiovascular safety, QTc interval in anesthetized guinea pigs, i.v. bolus; type: in vivo, guinea pig; conditions: for QTc prolongation (% above vehicle): anesthetized guinea pig, incremental i.v. bolus doses 0.47 to 15 mg/kg
Description: as §2

[10] = tested on: human hepG2 hepatocytes; assay: In vitro hepatotoxicity, resazurin and Nile Red staining; type: cell-based; conditions: 100 μM
Description: In one experiment, hepatotoxicity was estimated by overnight incubation of compounds at 3, 10, 30, 100, or 300 μM with cultured rat or human hepG2 hepatocytes, followed by staining of the cells with resazurin to measure viability or with Nile Red to measure steatosis. The minimal drug concentration at which changes in dye binding were observed was noted as the minimal effective concentration. The compound of formula (VIII) wherein Z=3-quinolyl affected […] and steatosis in human HepG2 hepatocytes at 30 μM.

[11] = tested on: dog; assay: Safety of intravenous dosing in dog models; conditions: intravenous 9 mg/kg
[12] = genotype sensitive, read-out: MIC50
[13] = genotype sensitive, read-out: MIC90

## CC1CC(N(C)C)C(O)C(O[C@@H]2[C@@H](C)C(=O)[C@@H](C)C(=O)O[C@H](CCF)[C@@]3(C)OC(=O)N[C@@H]3[C@@H](C)C(=O)[C@H](C)C[C@@]2(C)OC/C=C/c2ccc3cccnc3c2)O1 (stereo partly shown) [Compound (II), 6-O-(1-(7-quinolyl)-3-propenyl)-11-amino-11-deoxy-3-(descladinosyl)-3-oxo-15-fluoroerythromycin A-11,12-cyclic carbamate]
[1]; male beagle dogs, intravenous infusion 15 mg/kg over 30 minutes
  heart rate-corrected QT interval (QTc), FIG. 5: No significant increase in QTc
[1]; telemetered dogs, intravenous infusion up to 15 mg/kg
  effects on cardiac parameters, including QT interval: no effects
[2]
  Lung AUC: 1.42 ug/mL-h
  Lung Cmax: 0.26 µg/mL
[2]; mouse plasma
  AUC: 890 ng·h/mL
  Cmax: 260 ng/mL
[3]; 20 h, genotype ermB + mef
  MIC50: 1 µg/mL
[3]; genotype ermB
  MIC50: 0.12 µg/mL (≈ 0.153 µM)
  MIC90: 0.12 µg/mL (≈ 0.153 µM)
[3]; genotype ermB + mef
  MIC90: 2 µg/mL
[3]; genotype mef, read-out: MIC50
  MIC50: 0.25 µg/mL (≈ 0.319 µM)
[3]; genotype mef, read-out: MIC90
  MIC90: 0.25 µg/mL (≈ 0.319 µM)
[3]; [12]
  MIC50: 0.03 µg/mL (≈ 0.0383 µM)
[3]; [13]
  MIC90: 0.03 µg/mL (≈ 0.0383 µM)
[4]; genotype ermB
  MIC50: 0.12 µg/mL (≈ 0.153 µM)
  MIC90: 1 µg/mL (≈ 1.28 µM)
[4]; genotype mef, read-out: MIC50
  MIC50: 0.12 µg/mL (≈ 0.153 µM)
[4]; genotype mef, read-out: MIC90
  MIC90: 0.25 µg/mL (≈ 0.319 µM)
[4]; [12]
  MIC50: 0.03 µg/mL (≈ 0.0383 µM)
[4]; [13]
  MIC90: 0.03 µg/mL (≈ 0.0383 µM)
[5]
  MIC50: 0.12 µg/mL (≈ 0.153 µM)
  MIC90: 0.12 µg/mL (≈ 0.153 µM)
[6]; resistant
  MIC50: > 8 µg/mL
  MIC90: > 8 µg/mL
[6]; sensitive
  MIC50: 2 µg/mL (≈ 2.55 µM)
  MIC90: 4 µg/mL (≈ 5.1 µM)
[7]; 0.5 mg/kg oral gavage daily over 3 days
  Log CFU/g (avg, n = 8): 4.8 Log CFU/g
[7]; 2.5 mg/kg oral gavage daily over 3 days
  Log CFU/g (avg, n = 8): 4.3 Log CFU/g
[7]; rat, 0.5 mg/kg oral gavage daily over 3 days
  % survivors: 78%
[7]; rat, 2.5 mg/kg oral gavage daily over 3 days
  % survivors: 88%
[7]; rat, oral gavage daily over 3 days
  reducing the bacterial load in the rat lungs and increasing survival relative to control animals: efficacious
[8]
  QT prolongation (% above vehicle): −4 % above vehicle
[8]; rat
  effect on the QT interval in the rat: did not prolong the QT interval
[9]
  QTc prolongation (% above vehicle): 1 % above vehicle
[9]; guinea pig, cumulative doses up to 30 mg/kg, relative to vehicle controls
  effect on the QTc interval in the anesthetized guinea pig: no statistically significant effects
[10]
  effects on metabolic stability and steatosis: No effects

## CC1CC(N(C)C)C(O)C(O[C@@H]2[C@@H](C)C(=O)[C@](C)(F)C(=O)O[C@H](CCF)[C@@]3(C)OC(=O)N[C@@H]3[C@@H](C)C(=O)[C@H](C)C[C@@]2(C)OC/C=C/c2ccc3nccnc3c2)O1 (stereo partly shown) [H]
[2]
  Lung AUC: 11.0 ug/mL-h
  Lung Cmax: 3.0 µg/mL
[2]; mouse plasma
  Plasma AUC: 2.1 ug/mL-h
  Plasma Cmax: 0.67 µg/mL
[11]
  toxicity, severe clinical effects upon intravenous dosing: extremely toxic
[8]
  QT prolongation (% above vehicle): 15 % above vehicle
[9]
  QTc prolongation (% above vehicle): 4 % above vehicle
